Measured values as given in US20040142012A1, “Geometry retainable devices for body cavities” (priority 2001, published 2004).

Details: in vivo
Experimental: Progesterone content in the plasma was determined by direct radio immuno assay (Coat-a-Count, DPC, USA).

poly (ε-caprolactone)
Time to return to undetectable basal plasma progesterone levels after insert removal: ≤ 24 h
